Consider 23 compounds from patent US20240391948A1, “NOVEL COMPOUND THAT INHIBITS TNF-ALPHA GENERATION AND INFLAMMASOME ACTIVITY AND PREPARATION METHOD THEREFOR” (SHAPERON INC., priority 2021, published 2024).

By IC50 is commonly meant the concentration that inhibits the measured activity by half.

The subject of assay [1] is U937 cells (human monocytic cell line). The assay is described as follows: BzATP-induced IL-1β secretion inhibition in PMA-differentiated U937 cells. In kind it is cell-based. The settings on record: U-937, U937 cells differentiated with PMA, read-out: IL-1β production inhibition grade (IC50). As for the experimental part:
(§1) To evaluate anti-inflammatory efficacy, U937 cells (human monocytic cell line) were differentiated into macrophages using PMA (phorbol 12-myristate 13-acetate) and then induced an inflammatory response with Pam2CSK4 (Pam2CysSerLys4) or BzATP (2′(3′)—O-(4-Benzoylbenzoyl)adenosine 5′-triphosphate), the efficacy of taurine-bile acid derivatives in suppressing inflammatory cytokine (IL-1β, TNF-α) production was measured.
(§2) Using PMA, U937 cells were differentiated into macrophages, and the extent of TNF-α secretion inhibition was measured in an experimental group where taurine-bile acid derivatives was treated, followed by induction of inflammatory response with Pam2CSK4, and in the experimental group in which an inflammatory response was induced with BzATP, the extent to which IL-1β secretion among cytokines was suppressed was measured.
(§3) The ability of taurine-bile acid derivatives to inhibit cytokine production was expressed in terms of IC50 (μM) values. The standards for TNF α inhibition ability are A: less than 0.5, B: 0.5 to less than 1.0, C: 1.0 to less than 2.0, D: 2.0 or more, and the IL-1β inhibition ability grade standards are A: less than 0.05, B: 0.05 to less than 0.10, C: 0.10 or more and less than 0.20, D: 0.20 or more.

Assay [2] has the same test system. Briefly: Pam2CSK4-induced TNF-α secretion inhibition in PMA-differentiated U937 cells. It counts as cell-based. Particulars: U-937, U937 cells differentiated with PMA, read-out: TNF-α production inhibition grade (IC50). As for the experimental part:
as §1, §2, §3

Regarding `C[C@H](CCC(=O)NCCCO)[C@H]1CC[C@H]2[C@@H]3CC[C@@H]4C[C@H](O)CC[C@]4(C)[C@H]3C[C@H](O)[C@]12C` [NC10021], the IC50 in assay [1] lay in the range of 50 to 100 nM; in assay [2] it was 1000 to 2000 nM.
As for `C[C@H](CCC(=O)N(CCS(=O)(=O)O)C1CCOCC1)[C@H]1CC[C@H]2[C@@H]3CC[C@@H]4C[C@H](O)CC[C@]4(C)[C@H]3C[C@H](O)[C@]12C` [NC10025], the half-inhibitory concentration (IC50) in assay [1] lay in the range of 50 to 100 nM; in assay [2] it was 1000 to 2000 nM.
On the same counts, the results for `C[C@H](CCC(=O)N[C@H](CS(=O)(=O)O)c1ccccc1)[C@H]1CC[C@H]2[C@@H]3CC[C@@H]4C[C@H](O)CC[C@]4(C)[C@H]3C[C@H](O)[C@]12C` [NC10034] are 50 to 100 nM and 500 to 1000 nM.
On the same counts, the results for `C[C@H](CCC(=O)N(CCS(=O)(=O)O)Cc1cccnc1)[C@H]1CC[C@H]2[C@@H]3CC[C@@H]4C[C@H](O)CC[C@]4(C)[C@H]3CC[C@]12C` [NC10092] are 50 to 100 nM and not below 2000 nM.
The corresponding values for `C[C@H](CCC(=O)N(CCS(=O)(=O)O)c1ccccc1)[C@H]1CC[C@H]2[C@@H]3CC[C@@H]4C[C@H](O)CC[C@]4(C)[C@H]3CC[C@]12C` [NC10093] are 100 to 200 nM and not below 2000 nM.
For the compound `C[C@H](CCC(=O)N(CCS(=O)(=O)O)Cc1ccccc1)[C@H]1CC[C@H]2[C@@H]3CC[C@@H]4CC(=O)CC[C@]4(C)[C@H]3CC[C@]12C` [NC30005], the values for the 50% inhibitory concentration (IC50) in assay [1] and in assay [2] were not below 200 nM and 500 to 1000 nM, respectively.
The corresponding values for `CC(C)N(CCS(=O)(=O)O)C(=O)CC[C@@H](C)[C@H]1CC[C@H]2[C@@H]3CC[C@@H]4CC(=O)CC[C@]4(C)[C@H]3CC[C@]12C` [NC30007] are not below 200 nM and less than 500 nM.
The corresponding values for `C[C@H](CCC(=O)N1CCC[C@H]1CS(=O)(=O)O)[C@H]1CC[C@H]2[C@@H]3CC[C@@H]4CC(=O)CC[C@]4(C)[C@H]3CC[C@]12C` [NC30021] are 50 to 100 nM and 500 to 1000 nM.
Take `C[C@H](CCC(=O)N[C@@H](CO)CS(=O)(=O)O)[C@H]1CC[C@H]2[C@@H]3CC[C@@H]4CC(=O)CC[C@]4(C)[C@H]3CC[C@]12C` [NC30024]: the IC50 in assay [1] was not below 200 nM; in assay [2], 1000 to 2000 nM.
The corresponding values for `C[C@H](CCC(=O)N[C@@H]1CCCC[C@@H]1S(=O)(=O)O)[C@H]1CC[C@H]2[C@@H]3CC[C@@H]4CC(=O)CC[C@]4(C)[C@H]3CC[C@]12C` [NC30026] are not below 200 nM and less than 500 nM.
`C[C@H](CCC(=O)NC1(CS(=O)(=O)O)CC1)[C@H]1CC[C@H]2[C@@H]3CC[C@@H]4CC(=O)CC[C@]4(C)[C@H]3CC[C@]12C` [NC30032]: the figures for the 50% inhibitory concentration (IC50) in assay [1] and in assay [2] were not below 200 nM and 500 to 1000 nM, respectively.
The corresponding values for `C[C@H](CCC(=O)N(CCS(=O)(=O)O)Cc1cccnc1)[C@H]1CC[C@H]2[C@@H]3CC[C@@H]4CC(=O)CC[C@]4(C)[C@H]3CC[C@]12C` [NC30036] are not below 200 nM and 1000 to 2000 nM.
For `CC[C@H]1[C@@H](O)[C@@H]2[C@H](CC[C@]3(C)[C@@H]([C@H](C)CCC(=O)NCCCO)CC[C@@H]23)[C@@]2(C)CC[C@@H](O)C[C@@H]12` [NC40003], the results for the half-maximal inhibitory concentration (IC50) in assay [1] and in assay [2] were not below 200 nM and not below 2000 nM, respectively.
On the same counts, the results for `CC[C@H]1[C@@H](O)[C@@H]2[C@H](CC[C@]3(C)[C@@H]([C@H](C)CCC(=O)N(CCS(=O)(=O)O)Cc4ccccc4)CC[C@@H]23)[C@@]2(C)CC[C@@H](O)C[C@@H]12` [NC40005] are not below 200 nM and not below 2000 nM.
In the case of `CC[C@H]1[C@@H](O)[C@@H]2[C@H](CC[C@]3(C)[C@@H]([C@H](C)CCC(=O)N[C@H](CS(=O)(=O)O)C(C)C)CC[C@@H]23)[C@@]2(C)CC[C@@H](O)C[C@@H]12` [NC40016], the half-inhibitory concentration (IC50) in assay [1] is not below 200 nM; in assay [2] it was 500 to 1000 nM.
For the compound `CC[C@H]1[C@@H](O)[C@@H]2[C@H](CC[C@]3(C)[C@@H]([C@H](C)CCC(=O)N[C@@H]4CCCC[C@@H]4S(=O)(=O)O)CC[C@@H]23)[C@@]2(C)CC[C@@H](O)C[C@@H]12` [NC40026], the half-maximal inhibitory concentration (IC50) in assay [1] was 50 to 100 nM; in assay [2], 500 to 1000 nM.
Turning to `CC[C@H]1[C@@H](O)[C@@H]2[C@H](C[C@H](O)[C@]3(C)[C@@H]([C@H](C)CCC(=O)NCCC(=O)O)CC[C@@H]23)[C@@]2(C)CC[C@@H](O)C[C@@H]12` [NC50002], the half-inhibitory concentration (IC50) in assay [1] was not below 200 nM; in assay [2], not below 2000 nM.
With `CC[C@H]1[C@@H](O)[C@@H]2[C@H](C[C@H](O)[C@]3(C)[C@@H]([C@H](C)CCC(=O)N(CCS(=O)(=O)O)Cc4ccccc4)CC[C@@H]23)[C@@]2(C)CC[C@@H](O)C[C@@H]12` [NC50005], the IC50 in assay [1] was not below 200 nM; in assay [2], 1000 to 2000 nM.
The corresponding values for `CC[C@H]1[C@@H](O)[C@@H]2[C@H](C[C@H](O)[C@]3(C)[C@@H]([C@H](C)CCC(=O)N4CCC[C@H](S(=O)(=O)O)C4)CC[C@@H]23)[C@@]2(C)CC[C@@H](O)C[C@@H]12` [NC50009] are 100 to 200 nM and 1000 to 2000 nM.
On the same counts, the results for `CC[C@H]1[C@@H](O)[C@@H]2[C@H](C[C@H](O)[C@]3(C)[C@@H]([C@H](C)CCC(=O)N4CCC(S(=O)(=O)O)CC4)CC[C@@H]23)[C@@]2(C)CC[C@@H](O)C[C@@H]12` [NC50011] are not below 200 nM and not below 2000 nM.
Take `CC[C@H]1[C@@H](O)[C@@H]2[C@H](C[C@H](O)[C@]3(C)[C@@H]([C@H](C)CCC(=O)N[C@@H](Cc4ccccc4)CS(=O)(=O)O)CC[C@@H]23)[C@@]2(C)CC[C@@H](O)C[C@@H]12` [NC50014]: the values for the IC50 in assay [1] and in assay [2] were less than 50 nM and 500 to 1000 nM, respectively.
Take `CC[C@H]1[C@@H](O)[C@@H]2[C@H](C[C@H](O)[C@]3(C)[C@@H]([C@H](C)CCC(=O)N[C@@H](CS(=O)(=O)O)C(C)C)CC[C@@H]23)[C@@]2(C)CC[C@@H](O)C[C@@H]12` [NC50017]: the results for the IC50 in assay [1] and in assay [2] were 50 to 100 nM and 1000 to 2000 nM, respectively.
The corresponding values for `CC[C@H]1[C@@H](O)[C@@H]2[C@H](C[C@H](O)[C@]3(C)[C@@H]([C@H](C)CCC(=O)NC[C@@H](C)S(=O)(=O)O)CC[C@@H]23)[C@@]2(C)CC[C@@H](O)C[C@@H]12` [NC50023] are not below 200 nM and not below 2000 nM.
